Laboratory results: the supplement of paper PMC10627819

What was measured:
S. aureus DSM 20231 [1] = assay: Bliss interaction score (quartile over a dose matrix) (fitness difference); higher = more antagonism (negative = synergy)
How it was run: (§1)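 Fitness was defined as normalised growth: OD595 at the start of stationary phase divided by the plate's robust no-drug mean and capped at 1. Single-drug fitness was inferred from combination measurements. The Bliss score is observed fitness minus the product of the single-drug values, summarised by quartiles across technical, biological and donor/recipient replicates.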

S. aureus Newman [2] = assay: as above
How it was run: as §1

S. pneumoniae D39V [3] = assay: as above
How it was run: as §1

B. subtilis 168 [4] = assay: as above
How it was run: as §1

S. aureus DSM 20231 [5] = assay: fitness (endpoint OD595 vs no drug) (fraction); higher = more growth
How it was run: (§2)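 Bacterial fitness was scored as optical density at the stationary-phase transition relative to the robust mean of no-drug control wells. Scores are capped at 1. The growth data were OD595 readings every 30 min for 14 h at 37 °C, background-subtracted against the first reading, from 384-well plates inoculated at OD595 0.01 in TSB, LB Lennox or CY.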

S. pneumoniae D39V [6] = assay: as above
How it was run: as §2

S. aureus Newman [7] = assay: as above
How it was run: as §2

B. subtilis 168 [8] = assay: as above
How it was run: as §2
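Wherever Bliss interaction score (quartile over a dose matrix) is given: first quartile when negative (synergy) and third quartile when positive (antagonism).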
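Wherever fitness (endpoint OD595 vs no drug) is given: OD595 on entry to stationary phase over no-drug wells; at most 1.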

CC(=O)NC[C@H]1CN(c2ccc(N3CCOCC3)c(F)c2)C(=O)O1 [Linezolid] + CN[C@H](CC(C)C)C(=O)N[C@H]1C(=O)N[C@@H](CC(N)=O)C(=O)N[C@H]2C(=O)N[C@H]3C(=O)N[C@H](C(=O)N[C@H](C(=O)O)c4cc(O)cc(O)c4-c4cc3ccc4O)[C@H](O)c3ccc(c(Cl)c3)Oc3cc2cc(c3O[C@@H]2O[C@H](CO)[C@@H](O)[C@H](O)[C@H]2O[C@H]2C[C@](C)(N)[C@H](O)[C@H](C)O2)Oc2ccc(cc2Cl)[C@H]1O [Vancomycin]
Settings | Bliss interaction score
B. subtilis 168 [4] | 0.0387
S. aureus DSM 20231 [1] | 0.0467
S. aureus Newman [2] | -0.044
S. pneumoniae D39V [3] | -0.13

Settings | fitness
S. aureus DSM 20231 [5], first compound 0.125 µg/mL, partner 0.1875 µg/mL | 0.897
S. aureus DSM 20231 [5], first compound 0.125 µg/mL, partner 0.375 µg/mL | 0.936
S. aureus DSM 20231 [5], first compound 0.125 µg/mL, partner 0.75 µg/mL | 0.943
S. aureus DSM 20231 [5], first compound 0.25 µg/mL, partner 0.1875 µg/mL | 0.553
S. aureus DSM 20231 [5], first compound 0.25 µg/mL, partner 0.375 µg/mL | 0.596
S. aureus DSM 20231 [5], first compound 0.25 µg/mL, partner 0.75 µg/mL | 0.583
S. aureus DSM 20231 [5], first compound 0.5 µg/mL, partner 0.1875 µg/mL | 0.204
S. aureus DSM 20231 [5], first compound 0.5 µg/mL, partner 0.375 µg/mL | 0.18
S. aureus DSM 20231 [5], first compound 0.5 µg/mL, partner 0.75 µg/mL | 0.215
S. pneumoniae D39V [6], first compound 0.105 µg/mL, partner 0.125 µg/mL | 0.689
S. pneumoniae D39V [6], first compound 0.105 µg/mL, partner 0.25 µg/mL | 0.0692
S. pneumoniae D39V [6], first compound 0.105 µg/mL, partner 0.5 µg/mL | 0.0491
S. pneumoniae D39V [6], first compound 0.2 µg/mL, partner 0.03125 µg/mL | 0.77
S. pneumoniae D39V [6], first compound 0.2 µg/mL, partner 0.0625 µg/mL | 0.751
S. pneumoniae D39V [6], first compound 0.21 µg/mL, partner 0.125 µg/mL | 0.573
S. pneumoniae D39V [6], first compound 0.21 µg/mL, partner 0.25 µg/mL | 0.082
S. pneumoniae D39V [6], first compound 0.21 µg/mL, partner 0.5 µg/mL | 0.0299
S. pneumoniae D39V [6], first compound 0.4 µg/mL, partner 0.03125 µg/mL | 0.63
S. pneumoniae D39V [6], first compound 0.4 µg/mL, partner 0.0625 µg/mL | 0.604
S. pneumoniae D39V [6], first compound 0.42 µg/mL, partner 0.125 µg/mL | 0.339
S. pneumoniae D39V [6], first compound 0.42 µg/mL, partner 0.25 µg/mL | 0.0579
S. pneumoniae D39V [6], first compound 0.42 µg/mL, partner 0.5 µg/mL | 0.0734
S. pneumoniae D39V [6], first compound 0.8 µg/mL, partner 0.03125 µg/mL | 0.302
S. pneumoniae D39V [6], first compound 0.8 µg/mL, partner 0.0625 µg/mL | 0.255
S. pneumoniae D39V [6], first compound 0.8 µg/mL, partner 0.125 µg/mL | 0.188

S. aureus DSM 20231 [5], first compound 1 µg/mL, one replicate
Settings | fitness
partner 0.1875 µg/mL | 0.0273
partner 0.375 µg/mL | 0.0396
partner 0.75 µg/mL | 0.0452

CN[C@@H]1[C@H](O)[C@H](NC)[C@H]2O[C@@]3(O)C(=O)C[C@@H](C)O[C@H]3O[C@@H]2[C@H]1O [Spectinomycin] + CN(C)c1cc(NC(=O)CNC(C)(C)C)c(O)c2c1C[C@H]1C[C@H]3[C@H](N(C)C)C(O)=C(C(N)=O)C(=O)[C@@]3(O)C(O)=C1C2=O [Tigecycline]
Settings | Bliss interaction score
B. subtilis 168 [4] | 0.043
S. aureus DSM 20231 [1] | -0.0602
S. aureus Newman [2] | 0.0622
S. pneumoniae D39V [3] | 0.0451

fitness
Settings | first compound 2 µg/mL | first compound 4 µg/mL | first compound 8 µg/mL | first compound 16 µg/mL
B. subtilis 168 [8], partner 0.039 µg/mL | 0.976 | ≥ 1 | 0.978 | –
B. subtilis 168 [8], partner 0.078 µg/mL | 0.959 | 0.968 | 0.927 | –
B. subtilis 168 [8], partner 0.156 µg/mL | 1 | ≥ 1 | 0.889 | –
S. aureus Newman [7], partner 0.039 µg/mL | – | 0.912 | 0.918 | 0.904
S. aureus Newman [7], partner 0.078 µg/mL | – | 0.954 | 0.928 | 0.908
S. aureus Newman [7], partner 0.156 µg/mL | – | 0.938 | 0.961 | 0.929
S. pneumoniae D39V [6], partner 0.65 µg/mL | – | 0.951 | 0.896 | 0.747
S. pneumoniae D39V [6], partner 1.3 µg/mL | – | 0.981 | 0.905 | 0.788
S. pneumoniae D39V [6], partner 2.6 µg/mL | – | 0.941 | 0.896 | 0.761

fitness, one replicate
Settings | partner 0.039 µg/mL | partner 0.078 µg/mL | partner 0.125 µg/mL | partner 0.156 µg/mL | partner 0.25 µg/mL | partner 0.5 µg/mL
B. subtilis 168 [8], first compound 2 µg/mL | – | – | ≥ 1 | – | 0.994 | 0.937
B. subtilis 168 [8], first compound 4 µg/mL | – | – | ≥ 1 | – | 0.944 | ≥ 1
B. subtilis 168 [8], first compound 8 µg/mL | – | – | 0.941 | – | 0.931 | ≥ 1
S. aureus Newman [7], first compound 32 µg/mL | 0.592 | 0.585 | – | 0.603 | – | –
S. aureus Newman [7], first compound 64 µg/mL | 0.105 | 0.0894 | – | 0.1 | – | –
